In this experiment the target is recombinant HCV NS5B (HCV RNA-dependent RNA polymerase) (Hepatitis C virus genotype 1b, UniProt P26663). As to the kind of experiment: biochemical. Particulars: related polymerase activity (Example 27 list); read-out: IC50.
recombinant HCV NS5B (HCV RNA-dependent RNA polymerase), sequence (P26663 2420-3010 limits assumed): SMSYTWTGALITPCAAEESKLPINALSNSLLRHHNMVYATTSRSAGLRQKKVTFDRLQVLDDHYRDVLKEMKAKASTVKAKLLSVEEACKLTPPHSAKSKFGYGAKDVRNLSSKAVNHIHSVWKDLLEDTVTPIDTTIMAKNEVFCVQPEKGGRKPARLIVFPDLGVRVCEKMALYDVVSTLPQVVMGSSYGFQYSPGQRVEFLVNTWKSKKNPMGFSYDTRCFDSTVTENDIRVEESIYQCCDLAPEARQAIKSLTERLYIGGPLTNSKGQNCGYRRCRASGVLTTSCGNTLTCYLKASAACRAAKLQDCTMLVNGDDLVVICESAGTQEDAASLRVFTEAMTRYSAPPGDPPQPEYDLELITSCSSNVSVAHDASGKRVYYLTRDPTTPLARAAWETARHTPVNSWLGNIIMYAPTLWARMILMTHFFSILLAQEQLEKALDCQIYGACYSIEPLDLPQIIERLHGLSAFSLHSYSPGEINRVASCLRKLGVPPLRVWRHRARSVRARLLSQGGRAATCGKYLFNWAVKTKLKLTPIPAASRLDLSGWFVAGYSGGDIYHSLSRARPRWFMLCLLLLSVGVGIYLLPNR

Broadly, the IC50 is the concentration that inhibits the measured activity by half. With `Cc1ccccc1S(=O)(=O)Nc1cc(-c2ccc(Cl)cn2)sc1C(=O)O` [Compound 191, 5-(5-CHLORO-PYRIDIN-2-YL)-3-(TOLUENE-2-SULFONYLAMINO)-THIOPHENE-2-CARBOXYLIC ACID], the half-maximal inhibitory concentration (IC50) is under 5 µM.
For `Cc1ccc(C(=O)N(C)c2cc(-c3ccc(Cl)cc3)sc2C(=O)O)cc1` [Compound 192, 5-(4-CHLORO-PHENYL)-3-[METHYL-(4-METHYL-BENZOYL)-AMINO]-THIOPHENE-2-CARBOXYLIC ACID] the value was 5 to 20 µM; for `Cc1ccc(C(=O)N(C)c2cc(-c3ccc(C#N)cc3)sc2C(=O)O)cc1` [Compound 193, 5-(4-CYANO-PHENYL)-3-[METHYL-(4-METHYL-BENZOYL)-AMINO]-THIOPHENE-2-CARBOXYLIC ACID], 5 to 20 µM; for `Cc1ccc(C(=O)N(C)c2cc(-c3ccc([N+](=O)[O-])cc3)sc2C(=O)O)cc1` [Compound 194, 3-[METHYL-(4-METHYL-BENZOYL)-AMINO]-5-(4-NITRO-PHENYL)-THIOPHENE-2-CARBOXYLIC ACID], 5 to 20 µM.
The result for `Cc1ccc(C(=O)N(C)c2cc(-c3ccc(CO)cc3)sc2C(=O)O)cc1` [Compound 195, 5-(4-HYDROXYMETHYL-PHENYL)-3-[METHYL-(4-METHYL-BENZOYL)-AMINO]-THIOPHENE-2-CARBOXYLIC ACID] reads 5 to 20 µM; that for `Cc1ccc(C(=O)N(C)c2cc(-c3cccc([N+](=O)[O-])c3)sc2C(=O)O)cc1` [Compound 196, 3-[METHYL-(4-METHYL-BENZOYL)-AMINO]-5-(3-NITRO-PHENYL)-THIOPHENE-2-CARBOXYLIC ACID], under 5 µM.
For `Cc1ccc(C(=O)N(C)c2cc(-c3ccc(F)cc3)sc2C(=O)O)cc1` [Compound 197, 5-(4-FLUORO-PHENYL)-3-[METHYL-(4-METHYL-BENZOYL)-AMINO]-THIOPHENE-2-CARBOXYLIC ACID] the value was under 5 µM.
`COc1ccc(-c2cc(N(C)C(=O)c3ccc(C)cc3)c(C(=O)O)s2)cc1` [Compound 198, 5-(4-METHOXY-PHENYL)-3-[METHYL-(4-METHYL-BENZOYL)-AMINO]-THIOPHENE-2-CARBOXYLIC ACID]: the IC50 was 5 to 20 µM.
For `Cc1ccc(C(=O)N(C)c2cc(-c3ccc(C)cc3)sc2C(=O)O)cc1` [Compound 199, 3-[METHYL-(4-METHYL-BENZOYL)-AMINO]-5-P-TOLYL-THIOPHENE-2-CARBOXYLIC ACID] the value was 5 to 20 µM; for `Cc1ccc(C(=O)N(C)c2cc(-c3ccc(N)cc3)sc2C(=O)O)cc1` [Compound 200, 5-(4-AMINO-PHENYL)-3-[METHYL-(4-METHYL-BENZOYL)-AMINO]-THIOPHENE-2-CARBOXYLIC ACID], 5 to 20 µM; for `O=C(O)c1sc(-c2ccccc2)cc1N(C(=O)c1ccc(Cl)cc1Cl)C1CCCC1` [Compound 201, 3-[CYCLOPENTYL-(2,4-DICHLORO-BENZOYL)-AMINO]-5-PHENYL-THIOPHENE-2-CARBOXYLIC ACID], under 5 µM.
Consider `Cc1ccccc1S(=O)(=O)Nc1cc(-c2ccc3c(c2)OCO3)sc1C(=O)O` [Compound 202, 5-BENZO[1,3]DIOXOL-5-YL-3-(TOLUENE-2-SULFONYLAMINO)-THIOPHENE-2-CARBOXYLIC ACID], for which the IC50 was under 5 µM.
For `Cc1ccc(C(=O)N(CCO)c2cc(-c3ccccc3)sc2C(=O)O)cc1` [Compound 203, 3-[(2-HYDROXY-ETHYL)-(4-METHYL-BENZOYL)-AMINO]-5-PHENYL-THIOPHENE-2-CARBOXYLIC ACID] the value was under 5 µM.
The result for `CC(C)CN(C(=O)c1ccc(Cl)cc1Cl)c1cc(-c2ccccc2)sc1C(=O)O` [Compound 204, 3-[(2,4-DICHLORO-BENZOYL)-ISOBUTYL-AMINO]-5-PHENYL-THIOPHENE-2-CARBOXYLIC ACID] reads under 5 µM; that for `COc1cc(C)ccc1C(=O)N(C)c1cc(-c2ccccc2)sc1C(=O)O` [Compound 205, 3-[(2-METHOXY-4-METHYL-BENZOYL)-METHYL-AMINO]-5-PHENYL-THIOPHENE-2-CARBOXYLIC ACID], 5 to 20 µM.
The result for `Cc1ccc(C(=O)N(C)c2cc(-c3cccc(C#N)c3)sc2C(=O)O)cc1` [Compound 206, 5-(3-CYANO-PHENYL)-3-[METHYL-(4-METHYL-BENZOYL)-AMINO]-THIOPHENE-2-CARBOXYLIC ACID] reads under 5 µM.
With `Cc1ccc(C(=O)N(C)c2cc(-c3ccccc3Cl)sc2C(=O)O)cc1` [Compound 207, 5-(2-CHLORO-PHENYL)-3-[METHYL-(4-METHYL-BENZOYL)-AMINO]-THIOPHENE-2-CARBOXYLIC ACID], the IC50 lay within 5 to 20 µM.
As to `O=C(O)c1sc(-c2ccccc2)cc1N(C(=O)c1ccc(Cl)cc1Cl)c1ccccc1` [Compound 208, 3-[(2,4-DICHLORO-BENZOYL)-PHENYL-AMINO]-5-PHENYL-THIOPHENE-2-CARBOXYLIC ACID], the IC50 was under 5 µM.
Consider `CN(C(=O)c1ccc(C(F)(F)F)cc1)c1cc(-c2ccccc2)sc1C(=O)O` [Compound 209, 3-[4-(TRIFLUOROMETHYL-BENZOYL)METHYLAMINE]-5-PHENYL-THIOPHENE-2-CARBOXYLIC ACID], for which the IC50 was 5 to 20 µM.
For `CC(C)N(C(=O)c1ccc(Cl)cc1)c1cc(-c2ccccc2)sc1C(=O)O` [Compound 210, 3-[(4-CHLORO-BENZOYL)-ISOPROPYL-AMINO]-5-PHENYL-THIOPHENE-2-CARBOXYLIC ACID] the value was under 5 µM; for `Cc1ccc(C(=O)N(c2cc(-c3ccccc3)sc2C(=O)O)C(C)C)cc1` [Compound 211, 3-[ISOPROPYL-(4-METHYL-BENZOYL)-AMINO]-5-PHENYL-THIOPHENE-2-CARBOXYLIC ACID], under 5 µM; for `Cc1ccc(C(=O)N(C)c2cc(-c3cc(F)cc(F)c3)sc2C(=O)O)cc1` [Compound 212, 5-(3,5-DIFLUORO-PHENYL)-3-[METHYL-(4-METHYL-BENZOYL)-AMINO]-THIOPHENE-2-CARBOXYLIC ACID], under 5 µM.
The result for `Cc1ccc(C(=O)N(C)c2cc(-c3cccc(F)c3)sc2C(=O)O)cc1` [Compound 213, 5-(3-FLUORO-PHENYL)-3-[METHYL-(4-METHYL-BENZOYL)-AMINO]-THIOPHENE-2-CARBOXYLIC ACID] reads under 5 µM; that for `Cc1ccc(C(=O)N(C)c2cc(-c3ccc(F)cc3F)sc2C(=O)O)cc1` [Compound 214, 5-(2,4-DIFLUORO-PHENYL)-3-[METHYL-(4-METHYL-BENZOYL)-AMINO]-THIOPHENE-2-CARBOXYLIC ACID], 5 to 20 µM.
The result for `Cc1ccc(C(=O)N(C)c2cc(-c3ccc(O)cc3)sc2C(=O)O)cc1` [Compound 215, 5-(4-HYDROXY-PHENYL)-3-[METHYL-(4-METHYL-BENZOYL)-AMINO]-THIOPHENE-2-CARBOXYLIC ACID] reads under 5 µM.
Take `Cc1ccc(C(=O)N(C)c2cc(-c3ccc(OC(F)(F)F)cc3)sc2C(=O)O)cc1` [Compound 216, 3-[METHYL-(4-METHYL-BENZOYL)-AMINO]-5-(4-TRIFLUOROMETHOXY-PHENYL)-THIOPHENE-2-CARBOXYLIC ACID]: the half-inhibitory concentration (IC50) was 5 to 20 µM.
The result for `Cc1ccccc1S(=O)(=O)Nc1cc(-c2ccccc2O)sc1C(=O)O` [Compound 217, 5-(2-HYDROXY-PHENYL)-3-(TOLUENE-2-SULFONYLAMINO)-THIOPHENE-2-CARBOXYLIC ACID] reads 5 to 20 µM; that for `CC(C)N(C(=O)c1ccccc1Cl)c1cc(-c2ccccc2)sc1C(=O)O` [Compound 218, 3-[(2-CHLORO-BENZOYL)-ISOPROPYL-AMINO]-5-PHENYL-THIOPHENE-2-CARBOXYLIC ACID], 5 to 20 µM.
For `CC(C)N(C(=O)c1cc(Cl)cc(Cl)c1)c1cc(-c2ccccc2)sc1C(=O)O` [Compound 219, 3-[(3,5-DICHLORO-BENZOYL)-ISOPROPYL-AMINO]-5-PHENYL-THIOPHENE-2-CARBOXYLIC ACID] the value was 5 to 20 µM.
As to `Cc1cc(Br)ccc1S(=O)(=O)Nc1cc(-c2ccccc2)sc1C(=O)O` [Compound 220, 3-(4-BROMO-2-METHYL-BENZENESULFONYLAMINO)-5-PHENYL-THIOPHENE-2-CARBOXYLIC ACID], the half-maximal inhibitory concentration (IC50) was under 5 µM.
For `O=C(O)c1cc(S(=O)(=O)Nc2cc(-c3ccccc3)sc2C(=O)O)c(F)cc1Cl` [Compound 221, 3-(5-CARBOXY-4-CHLORO-2-FLUORO-BENZENESULFONYLAMINO)-5-PHENYL-THIOPHENE-2-CARBOXYLIC ACID] the value was over 20 µM; for `O=C(O)c1sc(-c2ccccc2)cc1NS(=O)(=O)c1ccc(F)c(F)c1F` [Compound 222, 5-PHENYL-3-(2,3,4-TRIFLUORO-BENZENESULFONYLAMINO)-THIOPHENE-2-CARBOXYLIC ACID], 5 to 20 µM; for `CC(C)N(C(=O)c1ccc(F)cc1)c1cc(-c2ccccc2)sc1C(=O)O` [Compound 226, 3-[(4-FLUORO-BENZOYL)-ISOPROPYL-AMINO]-5-PHENYL-THIOPHENE-2-CARBOXYLIC ACID], 5 to 20 µM.
For `CC(=O)c1ccc(-c2cc(NS(=O)(=O)c3ccccc3C)c(C(=O)O)s2)s1` [Compound 229, 5′-ACETYL-4-(TOLUENE-2-SULFONYLAMINO)-[2,2′]BITHIOPHENYL-5-CARBOXYLIC ACID] the value was under 5 µM.
The result for `Cc1ccccc1S(=O)(=O)Nc1cc(-c2cc3ccccc3s2)sc1C(=O)O` [Compound 230, 5-BENZO[B]THIOPHEN-2-YL-3-(TOLUENE-2-SULFONYLAMINO)-THIOPHENE-2-CARBOXYLIC ACID] reads under 5 µM; that for `CCCCc1ccc(-c2cc(NS(=O)(=O)c3ccccc3C)c(C(=O)O)s2)cc1` [Compound 231, 5-(4-BUTYL-PHENYL)-3-(TOLUENE-2-SULFONYLAMINO)-THIOPHENE-2-CARBOXYLIC ACID], under 5 µM; that for `CCc1ccc(-c2cc(NS(=O)(=O)c3ccccc3C)c(C(=O)O)s2)cc1` [Compound 232, 5-(4-ETHYL-PHENYL)-3-(TOLUENE-2-SULFONYLAMINO)-THIOPHENE-2-CARBOXYLIC ACID], under 5 µM.
For `O=C(O)c1sc(-c2ccccc2)cc1N(Cc1ccccc1)C(=O)c1ccc(Cl)cc1Cl` [Compound 233, 3-[BENZYL-(2,4-DICHLORO-BENZOYL)-AMINO]-5-PHENYL-THIOPHENE-2-CARBOXYLIC ACID], the concentration for half-maximal inhibition (IC50) was under 5 µM.
`Cc1cc(Cl)ccc1C(=O)N(c1cc(-c2ccccc2)sc1C(=O)O)C(C)C` [Compound 234, 3-[(4-CHLORO-2-METHYL-BENZOYL)-ISOPROPYL-AMINO]-5-PHENYL-THIOPHENE-2-CARBOXYLIC ACID]: the IC50 is under 5 µM.

Source of the values: patent publication US6881741B2 (ViroChem Pharma Inc., priority 2001, dated 2005).
